Laboratory results: patent US10016424B2, “Method and pharmaceutical composition for use in the treatment of epilepsy” (INSERM (Institut National de la Sante et de la Recherche …, priority 2013, dated 2018)
Where two headings read alike, the source gives them in different places.

What was measured:
[1] = tested on: dentate gyrus of organotypic slices; assay: Spontaneous interictal-like activity, extracellular field recordings in pilocarpine-treated organotypic hippocampal slice cultures; assay type: cell-based, mouse
Procedure: (§1) Hippocampal/entorhinal cortex slices (350 μm) were prepared from pre-genotyped GluK2−/− and WT mice (P9-10, FVB/N background) using a McIlwain tissue chopper. Slices were placed on mesh inserts (Millipore # PICMORG50) inside culture dishes containing 1 ml of the following medium: MEM 50%, HS 25%, HBSS 25%, HEPES 15 mM glucose 6.5 mg/ml and insulin 0.1 mg/ml. Culture medium was changed every 2-3 days and slices maintained in an incubator at 37° C./5% CO2. Pilocarpine (0.5 μM) was added to the medium at 5 D.I.V and removed at 7 D.I.V; slices were utilized for experiments from 9 D.I.V.
Cultured or acute slices were individually transferred to a recording chamber maintained at 30-32° C. and continuously perfused (2 ml/min) with oxygenated normal or adapted ACSF containing 5 μM gabazine. Local field potentials were made in the granule cell layer of the DG with glass electrodes (2-3 MΩ; filled with normal ACSF) using a DAM-80 amplifier (low filter, 1 Hz; […], 3 KHz; World Precision Instruments, Sarasota, Fla.). For evoked synaptic transmission, electrical stimulation was performed with a bipolar NiCh electrode (#762000, AM systems). Whole-cell voltage-clamp recordings of DGCs were made using tight-seal electrodes (5-8 MΩ) filled with an internal solution containing the following (in mM): 135 gluconic acid, 135 CsOH, 10 MgCl2, 0.1 CaCl2, 1 EGTA, 10 HEPES, 2 MgATP, 0.4 NaGTP, and 0.5% biocytin, pH 7.25. We used a Multiclamp 700B amplifier (Molecular Devices): data were filtered at 2 kHz, digitized (20 kHz) with a Digidata 1440A (Molecular Devices) to a PC, and acquired using Clampex 10.1 software (PClamp, Molecular Devices). Signals were analyzed off-line using Clampfit 9.2 (PClamp) and MiniAnalysis 6.0.1 (Synaptosoft, Decatur, Ga.). In organotypic slices, spontaneous EPSCs were recorded at the reversal potential for GABAergic currents (Vh=−70 mV). To characterize the nature and kinetic properties of fast and slow events, miniature EPSCs (mEPSCs) evoked in Sr2+ conditions (external Ca2+ was substituted with 1.2 mM Sr2+) were recorded in DGCs from GluK2−/− and WT slices. Electrical stimulation was made in the molecular layer in the continued presence of 5 μM gabazine and 40 μM D-APV; asynchronous mEPSCs were measured during the 300 ms period after the stimulus artifact. […] In cultured slices, visual representation of time-frequency analysis of local field potentials was performed using Autosignal software (Seasolve 1.7). In brief, field activity was highpass-filtered (>100 Hz) and time-frequency analysis performed using a continuous wavelet (Morlet) that reported integrated power (time-integral-squared amplitude, TISA) across time. Filtered traces were also analyzed by Fourier analysis (Hamming) using Clampfit 9.2. In acute hippocampal slices, intensity of antidromically-evoked bursts was quantified using coastline index (Epsztein et al., 2005).
The role of KARs in spontaneous epileptiform activity was then tested using extracellular field recordings in cultured slices. Recordings were performed in 5 mM K+-containing ACSF and in the presence of 5 μM gabazine in order to enhance neuronal excitability and to reliably record stereotyped spontaneous interictal-like activity (Berdichevsky et al., 2012).

[2] = tested on: KAR-mediated EPSCs at mossy fiber synapses; assay: Evoked KAR-mediated EPSCs at recurrent mossy fiber synapses in acute hippocampal slices from pilocarpine-treated mice; assay type: cell-based, mouse; conditions: 1 μM; DGCs from WT pilocarpine-treated mice; data not shown
Procedure: All experiments were approved by the Institut National de la Santé et de la Recherche Médicale animal care and use committee of May 29, 2001 (2001-464) and the European community council directive of Nov. 24, 1986 (86/609/EEC). Mice (FVB/N background) had access to food and water ad libitum and were housed under a 12 h light/dark cycle at 22-24° C. Male GluK2−/− and WT mice (P60-80) were given scopolamine (1 mg/kg) subcutaneously (s.c.) 15 minutes prior to s.c. administration of pilocarpine (200-600 mg/kg). A ramp protocol was used whereby animals were given an initial dose of 200 mg/kg followed by half-doses every 30 minutes until seizures appeared. […] Diazepam (10 mg/kg) was administered 45 minutes after onset of SE. […]
Cultured or acute slices were individually transferred to a recording chamber maintained at 30-32° C. and continuously perfused (2 ml/min) with oxygenated normal or adapted ACSF containing 5 μM gabazine. […] Signals were analyzed off-line using Clampfit 9.2 (PClamp) and MiniAnalysis 6.0.1 (Synaptosoft, Decatur, Ga.). In organotypic slices, spontaneous EPSCs were recorded at the reversal potential for GABAergic currents (Vh=−70 mV). To characterize the nature and kinetic properties of fast and slow events, miniature EPSCs (mEPSCs) evoked in Sr2+ conditions (external Ca2+ was substituted with 1.2 mM Sr2+) were recorded in DGCs from GluK2−/− and WT slices. […]

KARs = target: T1, KARs (Mus musculus, UniProt P39087+Q61626); assay type: cell-based
T1 construct: from tissue; host or cells: dentate granule cells in pilocarpine-treated organotypic hippocampal/entorhinal slice cultures from WT mice (FVB/N)
Procedure: as §1
Cultured or acute slices were individually transferred to a recording chamber maintained at 30-32° C. and continuously perfused (2 ml/min) with oxygenated normal or adapted ACSF containing 5 μM gabazine. Local field potentials were made in the granule cell layer of the DG with glass electrodes (2-3 MΩ; filled with normal ACSF) using a DAM-80 amplifier (low filter, 1 Hz; […], 3 KHz; World Precision Instruments, Sarasota, Fla.). For evoked synaptic transmission, electrical stimulation was performed with a bipolar NiCh electrode (#762000, AM systems). […] Signals were analyzed off-line using Clampfit 9.2 (PClamp) and MiniAnalysis 6.0.1 (Synaptosoft, Decatur, Ga.). In organotypic slices, spontaneous EPSCs were recorded at the reversal potential for GABAergic currents (Vh=−70 mV). To characterize the nature and kinetic properties of fast and slow events, miniature EPSCs (mEPSCs) evoked in Sr2+ conditions (external Ca2+ was substituted with 1.2 mM Sr2+) were recorded in DGCs from GluK2−/− and WT slices. Electrical stimulation was made in the molecular layer in the continued presence of 5 μM gabazine and 40 μM D-APV; asynchronous mEPSCs were measured during the 300 ms period after the stimulus artifact. […] Filtered traces were also analyzed by Fourier analysis (Hamming) using Clampfit 9.2. In acute hippocampal slices, intensity of antidromically-evoked bursts was quantified using coastline index (Epsztein et al., 2005).

AMPARs = assay: Remaining fast (AMPAR-mediated) EPSCs in dentate granule cells of GluK2-/- organotypic slices; assay type: cell-based, mouse; conditions: 30 μM, data not shown
Procedure: as §1
Cultured or acute slices were individually transferred to a recording chamber maintained at 30-32° C. and continuously perfused (2 ml/min) with oxygenated normal or adapted ACSF containing 5 μM gabazine. […] Signals were analyzed off-line using Clampfit 9.2 (PClamp) and MiniAnalysis 6.0.1 (Synaptosoft, Decatur, Ga.). In organotypic slices, spontaneous EPSCs were recorded at the reversal potential for GABAergic currents (Vh=−70 mV). To characterize the nature and kinetic properties of fast and slow events, miniature EPSCs (mEPSCs) evoked in Sr2+ conditions (external Ca2+ was substituted with 1.2 mM Sr2+) were recorded in DGCs from GluK2−/− and WT slices. […] Filtered traces were also analyzed by Fourier analysis (Hamming) using Clampfit 9.2. […]

[3] = slices from WT mice, 10 μM SYM2081 or 5 μM UBP310

T1 sequence (P39087 32-908): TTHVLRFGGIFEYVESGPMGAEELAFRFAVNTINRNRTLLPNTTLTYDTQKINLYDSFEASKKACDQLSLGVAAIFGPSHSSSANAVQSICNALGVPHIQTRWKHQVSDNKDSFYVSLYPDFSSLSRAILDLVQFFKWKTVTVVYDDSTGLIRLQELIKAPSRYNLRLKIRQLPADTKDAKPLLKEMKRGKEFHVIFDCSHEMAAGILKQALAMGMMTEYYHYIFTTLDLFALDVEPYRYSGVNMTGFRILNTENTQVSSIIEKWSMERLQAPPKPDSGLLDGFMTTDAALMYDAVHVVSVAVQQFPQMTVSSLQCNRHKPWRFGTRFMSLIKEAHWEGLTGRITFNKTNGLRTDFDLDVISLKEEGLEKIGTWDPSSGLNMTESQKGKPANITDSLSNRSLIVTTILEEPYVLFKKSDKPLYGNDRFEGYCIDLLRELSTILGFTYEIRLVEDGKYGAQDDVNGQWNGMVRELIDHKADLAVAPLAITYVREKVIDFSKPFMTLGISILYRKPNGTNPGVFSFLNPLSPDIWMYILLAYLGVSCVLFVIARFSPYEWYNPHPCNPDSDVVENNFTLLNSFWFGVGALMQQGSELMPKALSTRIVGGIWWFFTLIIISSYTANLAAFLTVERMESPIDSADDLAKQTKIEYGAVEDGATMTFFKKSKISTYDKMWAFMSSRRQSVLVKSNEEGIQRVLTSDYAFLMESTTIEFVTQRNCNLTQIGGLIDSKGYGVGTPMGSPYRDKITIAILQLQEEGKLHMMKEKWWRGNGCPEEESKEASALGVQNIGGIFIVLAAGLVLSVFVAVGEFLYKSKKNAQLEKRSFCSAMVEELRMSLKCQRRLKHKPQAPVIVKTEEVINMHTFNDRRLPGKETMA
T1 sequence (Q61626 15-979): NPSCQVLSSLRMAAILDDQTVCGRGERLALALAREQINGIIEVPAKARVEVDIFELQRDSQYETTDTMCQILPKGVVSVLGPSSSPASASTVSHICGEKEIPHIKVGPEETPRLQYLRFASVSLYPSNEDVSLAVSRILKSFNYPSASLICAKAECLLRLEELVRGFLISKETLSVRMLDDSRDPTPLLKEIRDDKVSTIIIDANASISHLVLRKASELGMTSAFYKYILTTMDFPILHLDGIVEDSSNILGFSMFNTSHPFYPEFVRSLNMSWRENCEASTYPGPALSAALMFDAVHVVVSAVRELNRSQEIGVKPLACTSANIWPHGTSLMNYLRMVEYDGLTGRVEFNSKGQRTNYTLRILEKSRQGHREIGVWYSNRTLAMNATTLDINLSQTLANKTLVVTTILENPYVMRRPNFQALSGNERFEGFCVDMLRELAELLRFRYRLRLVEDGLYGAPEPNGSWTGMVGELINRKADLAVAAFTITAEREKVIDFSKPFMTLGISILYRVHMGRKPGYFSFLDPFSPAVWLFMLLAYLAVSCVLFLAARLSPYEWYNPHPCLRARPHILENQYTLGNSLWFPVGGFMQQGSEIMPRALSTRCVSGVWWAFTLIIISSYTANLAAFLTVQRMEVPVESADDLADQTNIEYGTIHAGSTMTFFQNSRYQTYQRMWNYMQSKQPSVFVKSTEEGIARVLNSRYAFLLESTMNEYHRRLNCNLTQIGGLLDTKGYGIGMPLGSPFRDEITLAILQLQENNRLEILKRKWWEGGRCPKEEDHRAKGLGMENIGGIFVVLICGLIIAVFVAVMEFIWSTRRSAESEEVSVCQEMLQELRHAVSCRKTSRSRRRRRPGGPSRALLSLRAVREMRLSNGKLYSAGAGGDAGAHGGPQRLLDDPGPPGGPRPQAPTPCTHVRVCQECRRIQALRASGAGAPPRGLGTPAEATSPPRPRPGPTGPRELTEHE

NS(=O)(=O)c1cc2c(cc1Cl)NC(C1CC3C=CC1C3)NS2(=O)=O (stereo not drawn) [CTZ, cyclothiazide]
recovery of reduced interictal-like activity in GluK2-/- slices ([1]; GluK2-/- slices, bath application): could be recovered

N[C@H](C(=O)O)C1[C@@H](C(=O)O)[C@@H]1C(=O)O (stereo partly drawn) [DCGIV]
inhibition of KAR-mediated EPSCs [2]: 84%

CNC(=O)N1N=C(c2ccc(N)cc2)c2cc3c(cc2CC1C)OCO3 (stereo not drawn) [GYKI53655]
effect on KAR-mediated mEPSCs (KARs; WT cultured slices, SYM2081 10 μM, UBP310 5 μM, Sr2+ conditions, 5 μM gabazine, 40 μM D-APV): insensitive | block of remaining fast EPSCs (AMPARs): fully blocked

C[C@H](C[C@H](N)C(=O)O)C(=O)O [SYM2081, (2S,4R)-4-Methylglutamate]
alteration of the PD phase (power of paroxysmal discharge) [1, 3]: No significant alteration | reduction of power of the bursts in the late MB phase [1, 3]: 68% | reduction of frequency of interictal-like activity ([1]; slices from WT mice, 10 μM SYM2081 or 5 μM UBP310, 5 mM K+ ACSF, 5 μM gabazine): 47% | frequency of interictal-like activity ([1]; slices from WT mice, 10 μM SYM2081 or 5 μM UBP310, without antagonist 3.2±0.4, mean±SEM): 1.69±0.3 events/min | effect on KAR-mediated mEPSCs (KARs): abolished
